Measurements: patent US10383875B2, “Pharmaceutical formulations of xanthine or xanthine derivatives, and their use” (Imprimis Pharmaceuticals, Inc., priority 2013, dated 2019)

Tests used:
[1] = test system: symptoms of PD, such as erectile dysfunction; assay: Intracavernosal injection of a composition comprising pentoxifylline (general finding); assay type: in vivo
Description: This disclosure relates to the finding that local administration of a xanthine derivative, e.g., pentoxifylline, has produced unexpected improvement in treating a fibrotic disease.

[2] = test system: Peyronie's Disease plaques; details: oral administration; cited from earlier work
erectile dysfunction = assay: Intracavernosal injection in a patient with erectile dysfunction (Example 4); assay type: in vivo, human; details: person, along with phentolamine, alprostadil and papaverine
Procedure: A new injection was reformulated to contain the 3 vasoactive drugs mentioned above along with the addition of pentoxifylline, and was administered to the patient.

Peyronie's plaque = assay: Injection of pentoxifylline directly into the Peyronie's plaque of patients (Examples 5 and 6); assay type: in vivo, human; details: Peyronie's disease
Procedure: In Examples 5 and 6, patients suffering from Peyronie's disease were treated. A therapy cycle included injections of sterile pentoxifylline. More specifically, 6 separate injections were to be conducted over every two weeks. The dosage was 5 mg of pentoxifylline in a 1 ml volume. Single use vials were dispensed. The injections were made using a 21 gauge cannula directly into the Peyronie's plaque. A nerve block was done around the injection site to lessen the pain. Manual manipulation and traction techniques were employed to massage the area of the injection. Patients returned after two weeks for another injection and manual manipulation session.
Baseline measurements were collected before any treatment occurred to characterize the extent of the patient's disease. The degree of curvature was noted, as well as any pain/discomfort that the patient presently had and current sexual ability. Psychosocial effects related to the patient's disease were observed as well.
In Example 5, the patient suffering from Peyronie's disease was brought to the procedure room, prepared and draped in the usual sterile fashion.
A total of 1 mL of 1% lidocaine was used to perform a local block. Once the patient was anesthetized, the plaque was isolated between two fingers and 1 mL of 5 mg pentoxyfilline was injected into the plaque in a fan-like fashion. […]

## CC(=O)CCCCn1c(=O)c2c(ncn2C)n(C)c1=O [pentoxifylline, 1-(5-oxohexyl)-3,7-dimethylxanthine]
[1]
  improvement to symptoms of PD, such as erectile dysfunction: remarkable improvement
  side effects: fewer side effects
[2]
  improvement of Peyronie's disease: moderate to minimal improvement
Erectile dysfunction; pentoxifylline 6 mg dose
  improvement of erectile dysfunction: more remarkable
Erectile dysfunction; pentoxifylline dose of 4 mg per injection
  improvement of erectile dysfunction: remarkable improvement
Peyronie's plaque; Example 5 patient, 1 mL of 5 mg injected into the plaque after 1% lidocaine local block
  tolerability of the procedure: tolerated the procedure well
Peyronie's plaque; Example 6 patient, treated in the same fashion as Example 5 (5 mg in 1 ml into the plaque)
  tolerability of the procedure: tolerated the procedure well
